# Where two headings read alike, the source gives them in different places.
# Assays:
# [1] = biological target: T1, tyrosine kinase A (TrkA) (Mus musculus, UniProt Q3UFB7); assay: Tyrosine kinase A phosphorylation in HT-22 cells (Western blot); format: cell-based; conditions: first minute of exposure
# T1 construct: phosphorylation of tyrosine kinase A in cultured hippocampal neuronal cell line HT22; endogenous in cells; host or cells: HT-22 hippocampal neuronal cell line
# Protocol: (§1) The amount of Hsp70, Hsp32 and pTrkA was determined in the cytoplasmic fraction of HT-22 neuronal cells. For heat shock proteins, a test compound was added to the culture 24 hours prior to testing, before the cells were washed off the culture liquid with PBS. For pTrkA, a test compound was added to the culture immediately prior to the cell lysis just for 1 or 2 min, before the cells were washed off the culture liquid with PBS. Then the cells were mixed with the lysis buffer (50 mM Tris-HCl, 5 mM EDTA, 1 mM DTT, 1% Triton X-100, pH 7.5) at 4° C. and lysed for 5 min, then scraped off, transferred into a 1.5 ml centrifuge tube and centrifuged at 13000 rpm and 4° C. for 10 min. The supernatant containing cytosolic proteins was assayed by electrophoresis and immunoblotting. Proteins were separated on a 10% polyacrylamide gel (PAAG) and transferred from PAAG onto a PVDF membrane by electroelution for 45 min. Western blots were pre-incubated for 1 h in a TBST solution containing 1% Tween-20 and supplemented with 5% (w/v) skim milk. Western blots were then incubated with the primary polyclonal anti-Hsp32 antibody diluted 1:1000 or primary monoclonal anti-Hsp70 antibody diluted 1:1000 or primary monoclonal anti-phosphorylated tyrosine kinase A antibody diluted 1:1000 for 1 hour. Then the blots were washed and incubated with a secondary antibody conjugated to horseradish peroxidase (diluted 1:2000) for 1 hour. The detection of Hsp70, Hsp32 and pTrkA was carried out by the ECL reaction on a Kodak film.
# [2] = tested on: rats with hemorrhagic stroke; conditions: 1 mg/kg
# Protocol: The experiments were carried out on male white outbred rats weighing 220-250 g. […] The local cerebral hemorrhage (post-traumatic intracerebral hemorrhage) as a hemorrhagic stroke (HS) model was produced by the method of Makarenko (Makarenko A. N. et al., Zh. V. N. D. 2002, 52(6), 765-768).
# To produce the stroke, rats were anesthetized with chloral hydrate (400 mg/kg i.m.) followed by craniotomy. The cerebral tissue in the region of internal capsule was destroyed followed (in 2-3 min) by the injection of blood (0.02-0.03 ml) taken from under the animal's tongue.
# The neurological deficits, changes in the coordination of movements, muscle tone, orientation and exploratory behavior of the rats were recorded at 24 h after surgery.
# The rats were monitored for 14 days after surgery. Animal's physical condition and behavioral features were recorded at 1, 3, 7 and 14 days.
# The animals were distributed into 3 groups. Group 1 comprised sham-operated (SO) rats with craniotomy alone, group 2 comprised animals with HS, and group 3 comprised rats with HS treated with GK-2 (1 mg/kg at 3 h after surgery and every 48 hours thereafter for a total of 6 administrations). Group 1 and group 2 animals were treated with physiological saline in an equivalent volume.
# Changes in animals' physical condition and behavior were evaluated by conventional methods. The neurological status was assessed by scoring neurological deficits according to MacGrow's stroke scoring system as modified by I. V. Gannushkina; by the muscle tone and coordination of movements monitoring methods; cognitive function was assessed by the passive avoidance conditioned reflex (PAR); and orientation and exploratory behavior by using the open field test. Also the drug's effect on the survival of rats was monitored.
# [3] = tested on: PC12 cell line; assay: Cellular model of Parkinson's disease (MPTP, MTT test); format: cell-based, rat
# Protocol: To produce a model for Parkinson's disease, MPTP was used at a final concentration of 1 mM (Shimoke K., Chiba H. Nerve growth factor prevents 1-methyl-[…]-1,2,3,6-tetrahydropyridine-induced cell death via the Akt pathway by suppressing caspase-3-like activity using PC12 cells: relevance to therapeutic application for Parkinson's disease. J. Neurosci. Res. 2001, 63, 402-409). MPTP was added to the cell growth medium containing 1% FBS at 24 hours after passage. The peptides were added to the cell growth medium concurrently with MPTP or 24 h before MPTP. Cell viability was determined at 24 h using an MTT test.
# [4] = tested on: Hsp32; assay: Western blot of Hsp32 in HT-22 cells; format: cell-based, mouse; conditions: 24 h after addition; GK-1, GK-2 10^−8 and 10^−5 M; GK-3 10^−6 M; GK-4 10^−7 M; GK-5 10^−6 M
# Protocol: as §1
# T1 sequence (Q3UFB7 34-799): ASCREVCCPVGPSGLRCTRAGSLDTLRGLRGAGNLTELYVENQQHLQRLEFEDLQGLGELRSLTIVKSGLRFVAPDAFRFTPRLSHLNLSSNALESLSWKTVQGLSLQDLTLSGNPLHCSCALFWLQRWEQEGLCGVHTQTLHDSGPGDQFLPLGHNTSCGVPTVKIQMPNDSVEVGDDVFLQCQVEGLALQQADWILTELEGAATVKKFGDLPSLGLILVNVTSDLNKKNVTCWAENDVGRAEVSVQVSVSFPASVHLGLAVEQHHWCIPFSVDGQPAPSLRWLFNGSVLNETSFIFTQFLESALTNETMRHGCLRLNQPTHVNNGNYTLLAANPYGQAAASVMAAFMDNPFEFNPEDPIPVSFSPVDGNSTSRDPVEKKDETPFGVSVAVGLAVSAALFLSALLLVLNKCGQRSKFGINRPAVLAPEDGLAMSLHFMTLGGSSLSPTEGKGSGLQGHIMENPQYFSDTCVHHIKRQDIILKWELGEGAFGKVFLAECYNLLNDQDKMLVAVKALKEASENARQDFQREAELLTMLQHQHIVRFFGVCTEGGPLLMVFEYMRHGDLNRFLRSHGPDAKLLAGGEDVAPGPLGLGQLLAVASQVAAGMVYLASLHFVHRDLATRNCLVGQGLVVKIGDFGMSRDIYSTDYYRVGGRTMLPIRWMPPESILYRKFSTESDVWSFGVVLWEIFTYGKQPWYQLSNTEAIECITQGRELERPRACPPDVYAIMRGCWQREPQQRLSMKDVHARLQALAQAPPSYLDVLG
compound,measurement,setting,value
"NCCCC[C@H](NC(=O)[C@H](CCC(=O)O)NC(=O)CCC(=O)O)C(=O)NCCCCCCNC(=O)[C@H](CCCCN)NC(=O)[C@H](CCC(=O)O)NC(=O)CCC(=O)O [GK-2, bis-(N-monosuccinyl-glutamyl-lysine) hexamethylenediamide]",level of phosphorylated tyrosine kinase A,[1],increased
same,Relative number of animals with paralysis of 1 to 4 limbs,"[2]; Day 1, SO 0, HS 0",0%
same,Relative number of animals with paresis of 1 to 4 limbs,"[2]; Day 1, SO 0, HS 37.5",20%
same,Relative number of animals with ring movements,"[2]; Day 1, SO 0, HS 50",20%
same,Relative number of animals with limb weakness,"[2]; Day 1, SO 30, HS 75",30%
same,Relative number of animals with floppiness & slowness of movements,"[2]; Day 1, SO 40, HS 100",40%
same,"Number of rats failing to mount the horizontal bar, abs.","[2]; Day 1, sham 3/10, stroke 6/8",4/10
same,"Number of rats missing the rotating rod (3 rpm) during 2 min, abs.","[2]; Day 1, sham 3/10, stroke 6/8",4/10
same,Vertical motor activity,"[2]; Day 1, sham 5.0, stroke 1.25",3.7 ± 0.9
same,Exploration of openings,"[2]; Day 1, sham 10.3, stroke 1.9",3.6 ± 0.7
same,Horizontal motor activity,"[2]; Day 1, sham 14.1, stroke 4.4",9.9 ± 2.1
same,"Number of rats failing to mount the horizontal bar, %","[2]; Day 1, sham 30, stroke 75",40%
same,"Number of rats missing the rotating rod (3 rpm) during 2 min, %","[2]; Day 1, sham 30, stroke 75",40%
same,Cumulative index,"[2]; Day 1, sham 30.3, stroke 7.5",17.2 ± 3.5
same,Relative number of animals with paralysis of 1 to 4 limbs,"[2]; Day 3, SO 0, HS 0",0%
same,Relative number of animals with paresis of 1 to 4 limbs,"[2]; Day 3, SO 0, HS 25",0%
same,Relative number of animals with ring movements,"[2]; Day 3, SO 0, HS 37.5",10%
same,Relative number of animals with limb weakness,"[2]; Day 3, SO 30, HS 75",30%
same,Relative number of animals with floppiness & slowness of movements,"[2]; Day 3, SO 30, HS 100",30%
same,"Number of rats failing to mount the horizontal bar, abs.","[2]; Day 3, sham 2/10, stroke 3/8",2/10
same,"Number of rats missing the rotating rod (3 rpm) during 2 min, abs.","[2]; Day 3, sham 2/10, stroke 5/8",3/10
same,Exploration of openings,"[2]; Day 3, sham 4.0, stroke 3.1",3.7 ± 0.9
same,Vertical motor activity,"[2]; Day 3, sham 4.6, stroke 1.1",2.4 ± 0.6
same,Horizontal motor activity,"[2]; Day 3, sham 9.3, stroke 3.0",5.6 ± 1.4
same,Cumulative index,"[2]; Day 3, sham 17.9, stroke 7.2",11.7 ± 2.4
same,"Number of rats failing to mount the horizontal bar, %","[2]; Day 3, sham 20, stroke 37.5",20%
same,"Number of rats missing the rotating rod (3 rpm) during 2 min, %","[2]; Day 3, sham 20, stroke 62.5",30%
same,Relative number of animals with paralysis of 1 to 4 limbs,"[2]; Day 7, SO 0, HS 0",0%
same,Relative number of animals with paresis of 1 to 4 limbs,"[2]; Day 7, SO 0, HS 0",0%
same,Relative number of animals with ring movements,"[2]; Day 7, SO 0, HS 0",0%
same,Relative number of animals with floppiness & slowness of movements,"[2]; Day 7, SO 0, HS 43",0%
same,Relative number of animals with limb weakness,"[2]; Day 7, SO 0, HS 43",0%
same,"Number of rats failing to mount the horizontal bar, %","[2]; Day 7, sham 0, stroke 43",10%
same,"Number of rats missing the rotating rod (3 rpm) during 2 min, %","[2]; Day 7, sham 0, stroke 43",20%
same,"Number of rats failing to mount the horizontal bar, abs.","[2]; Day 7, sham 0/10, stroke 3/7",1/10
same,"Number of rats missing the rotating rod (3 rpm) during 2 min, abs.","[2]; Day 7, sham 0/10, stroke 3/7",2/10
same,Exploration of openings,"[2]; Day 7, sham 3.7, stroke 2.9",4.3 ± 0.9
same,Vertical motor activity,"[2]; Day 7, sham 4.1, stroke 1.0",4.4 ± 0.7
same,Horizontal motor activity,"[2]; Day 7, sham 8.6, stroke 3.7",8.1 ± 1.6
same,Cumulative index,"[2]; Day 7, sham 16.4, stroke 7.6",16.8 ± 2.7
same,Relative number of animals with floppiness & slowness of movements,"[2]; Day 14, SO 0, HS 0",0%
same,Relative number of animals with limb weakness,"[2]; Day 14, SO 0, HS 0",0%
same,Relative number of animals with paralysis of 1 to 4 limbs,"[2]; Day 14, SO 0, HS 0",0%
same,Relative number of animals with paresis of 1 to 4 limbs,"[2]; Day 14, SO 0, HS 0",0%
same,Relative number of animals with ring movements,"[2]; Day 14, SO 0, HS 0",0%
same,"Number of rats failing to mount the horizontal bar, %","[2]; Day 14, sham 0, stroke 17",0%
same,"Number of rats missing the rotating rod (3 rpm) during 2 min, %","[2]; Day 14, sham 0, stroke 17",0%
same,"Number of rats failing to mount the horizontal bar, abs.","[2]; Day 14, sham 0/10, stroke 1/6",0/10
same,"Number of rats missing the rotating rod (3 rpm) during 2 min, abs.","[2]; Day 14, sham 0/10, stroke 1/6",0/10
same,Exploration of openings,"[2]; Day 14, sham 5.0, stroke 2.8",3.2 ± 0.9
same,Vertical motor activity,"[2]; Day 14, sham 5.1, stroke 1.0",2.8 ± 0.9
same,Horizontal motor activity,"[2]; Day 14, sham 9.1, stroke 1.8",7.5 ± 1.7
same,Cumulative index,"[2]; Day 14, sham 19.2, stroke 5.7",13.5 ± 2.9
same,protective effect against MPTP,[3]; added 24 hours prior to MPTP 1 mM,active at both 10^−5 M and 10^−8 M
same,protective effect against MPTP,"[3]; added concurrently with MPTP 1 mM, 10^−5 M and 10^−8 M tested",only at 10^−5 M
same,amount of Hsp32,[4],increase

# From US9683014B2, “Dipeptide mimetics of NGF and BDNF neurotrophins” (UCHREZHDENIE ROSSIISKOI AKADEMII MEDITSYNSKIKH NAUK …, priority 2009, dated 2017)
